Data set [1] concerns hERG. Conditions: ref Crumb et al., 2016, cited from earlier work.
The subject of data set [2] is clinical ECG. Conditions: lidocaine or mexiletine co-administered with dofetilide; diltiazem with moxifloxacin; ref Johannesen et al., 2016; cited from earlier work.
Data set [3] relates to INaL (NaV1.5 channels). Conditions: prior study, ref Crumb et al., 2016, cited from earlier work; for IC50: read-out: INaL IC50, veratridine, 36 °C.
Data set [4] deals with hERG current (HEK293 cells expressing the hERG1a subunit) (Homo sapiens, UniProt Q12809). Kind of data set: cell-based.
The conditions of data set [5]: calculated with MW and protein binding; ref Johannesen et al., 2016; cited from earlier work.
Data set [6] has as its target hERG (Homo sapiens, UniProt Q12809). The experiment in a line: in vitro. The note with it: HEK293 cells stably expressing the hERG1a subunit, pH 7.4.
For data set [7] the following is noted: used to calculate free Cmax; no reference given; cited from earlier work.
In data set [8] the test system is adult human primary ventricular trabeculae. The note with it: mexiletine at 3X concentration as tested here; ref Qu et al., 2017; cited from earlier work.
In data set [9] the test system is IBa or Ba2+ current through CaV1.2 channels. The note with it: read-out: IBa (Ba2+ current through CaV1.2) IC50; prior study; 36 °C; ref Crumb et al., 2016; cited from earlier work.
Data set [10] has as its system hERG1a and hERG1a/1b channels. The note with it: cited from earlier work.
Data set [11] relates to INaL. On the set-up: method as in Wu et al., 2019. Conditions: room temperature, ref Wu et al., 2019, cited from earlier work.
Data set [12] deals with adult human primary ventricular trabeculae. Kind of data set: Action potential recordings from adult human ventricular trabeculae (sharp electrode).
Data set [13] relates to Ba2+ current through CaV1.2 channels. On the set-up: method as in Ren et al., 2022. The note with it: ∼37 °C; ref Ren et al., 2022; cited from earlier work.
[14] abbreviates: diltiazem 3.84 then 38.4 µM or nifedipine 0.23 then 1 µM, alone.

Values joined by “and” are separate entries in the source; they are usually repeats but may differ in a detail not shown here. Identical values can stand only once. Like-named read-outs stand apart in the source and are kept apart here.

Sequence of hERG (Homo sapiens, UniProt Q12809) (Q12809 whole entry): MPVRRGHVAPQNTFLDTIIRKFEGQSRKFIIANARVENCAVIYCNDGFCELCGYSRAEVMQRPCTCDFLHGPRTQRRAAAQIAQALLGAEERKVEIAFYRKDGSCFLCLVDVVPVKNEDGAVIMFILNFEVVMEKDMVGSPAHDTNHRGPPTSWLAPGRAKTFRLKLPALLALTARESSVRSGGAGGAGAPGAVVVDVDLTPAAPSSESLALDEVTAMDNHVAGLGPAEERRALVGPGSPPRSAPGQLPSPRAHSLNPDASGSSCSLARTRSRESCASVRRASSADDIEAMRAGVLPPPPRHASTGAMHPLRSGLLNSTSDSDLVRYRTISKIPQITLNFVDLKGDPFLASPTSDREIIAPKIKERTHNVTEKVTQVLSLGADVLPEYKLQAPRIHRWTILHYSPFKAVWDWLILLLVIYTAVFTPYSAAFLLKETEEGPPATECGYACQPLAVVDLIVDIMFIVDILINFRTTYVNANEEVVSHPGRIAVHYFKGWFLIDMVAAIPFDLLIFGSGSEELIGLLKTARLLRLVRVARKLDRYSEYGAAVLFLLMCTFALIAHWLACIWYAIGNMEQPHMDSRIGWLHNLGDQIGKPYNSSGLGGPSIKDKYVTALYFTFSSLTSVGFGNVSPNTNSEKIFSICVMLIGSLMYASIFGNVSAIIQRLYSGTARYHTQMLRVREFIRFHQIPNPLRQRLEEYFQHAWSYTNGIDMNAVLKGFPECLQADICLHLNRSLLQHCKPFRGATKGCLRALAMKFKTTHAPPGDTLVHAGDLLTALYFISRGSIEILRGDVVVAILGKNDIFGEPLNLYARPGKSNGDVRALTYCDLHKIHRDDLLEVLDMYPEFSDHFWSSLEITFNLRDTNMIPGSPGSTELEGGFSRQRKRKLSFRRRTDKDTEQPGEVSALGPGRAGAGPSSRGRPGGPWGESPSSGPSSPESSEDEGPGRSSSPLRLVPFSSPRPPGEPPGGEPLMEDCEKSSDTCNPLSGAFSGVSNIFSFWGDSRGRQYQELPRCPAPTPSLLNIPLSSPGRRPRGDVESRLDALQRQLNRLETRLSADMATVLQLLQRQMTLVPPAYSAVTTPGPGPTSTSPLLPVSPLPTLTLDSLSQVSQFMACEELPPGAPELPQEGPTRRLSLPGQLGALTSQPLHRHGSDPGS
Sequence of hERG current (HEK293 cells expressing the hERG1a subunit) (Q12809 whole entry): as above

By IC50 is commonly meant the concentration that inhibits the measured activity by half. Broadly, the inhibition is the percentage by which the read-out fell short of the control. Read a low inhibition as a response near the control. With `Cc1cccc(C)c1OCC(C)N` (stereo not shown) [mexiletine], the hERG current inhibition in data set [1] (10 μM, highest concentration tested in prior study) is listed as roughly 10%. Moreover, the “effect on hERG block-induced QTC and J-TpeakC prolongation” value in data set [2] is reported as “shortened by co-administration”. For the same compound, the IC50 was 9.3 µM and 9 µM in [3]; 55.6 µM in [4]; 38.2 µM in data set [9]. Further, the “free clinical Cmax” value in data set [5] is 3.6 µM. Moreover, in [6], the inhibition at 10 µM is roughly 20%. Moreover, the “percent protein binding (PB)” value in data set [7] was 55%. In [8], the AP height entry is on record as “reduced AP height”.

For the compound `C=CCN1CC[C@]23c4c5ccc(O)c4O[C@H]2C(=O)CC[C@@]3(O)[C@H]1C5` [naloxone], the “pharmacological difference between hERG1a and hERG1a/1b channels” value in data set [10] (ref Tran et al., 2020) is on record as “no pharmacological differences”.

`O=C(NCC1CCCCN1)c1cc(OCC(F)(F)F)ccc1OCC(F)(F)F` (stereo not shown) [flecainide]: the AP height result in data set [8] is “reduced AP height”.

In the case of `Nc1nnc(-c2cccc(Cl)c2Cl)c(N)n1` [lamotrigine], the AP height entry in data set [8] is on record as “reduced AP height”.

Regarding `CCN(CC)CC(=O)Nc1c(C)cccc1C` [lidocaine], the figures for the IC50 in [11] (read-out: INaL IC50 obtained in ATX-II) and in [11] (read-out: INaL IC50 obtained in veratridine) were 31.7 µM and 395 µM, respectively.

`CN(CCOc1ccc(NS(C)(=O)=O)cc1)CCc1ccc(NS(C)(=O)=O)cc1` [dofetilide]: the 50% inhibitory concentration (IC50) in data set [1] (read-out: hERG IC50, prior study, 36 °C) is […]. Also, the “AP triangulation (APD90 minus APD30)” value in [12] (dofetilide 0.1 µM alone, 1 Hz) was “resulting in AP triangulation”. Besides, the AP triangulation entry in data set [12] (dofetilide in the presence of diltiazem or nifedipine) was “induced AP triangulation”.

As to `COc1ccccc1OCC(O)CN1CCN(CC(=O)Nc2c(C)cccc2C)CC1` (stereo not shown) [ranolazine], the AP height result in data set [8] was “did not”.

With `O=C1CC[C@@]2(O)[C@H]3Cc4ccc(O)c5c4[C@@]2(CCN3CC2CC2)[C@H]1O5` [naltrexone], the “pharmacological difference between hERG1a and hERG1a/1b channels” value in data set [10] (ref Tran et al., 2020) is “no pharmacological differences”.

With `CCC(=O)C(CC(C)N(C)C)(c1ccccc1)c1ccccc1` (stereo not shown) [methadone], the “pharmacological difference between hERG1a and hERG1a/1b channels” value in [10] is on record as “no pharmacological differences”.

Turning to buprenorphine, the “pharmacological difference between hERG1a and hERG1a/1b channels” value in data set [10] is on record as “no pharmacological differences”.

Take `COc1ccc([C@@H]2Sc3ccccc3N(CCN(C)C)C(=O)[C@@H]2OC(C)=O)cc1` [diltiazem]: the “hERG current inhibition when 50% of CaV1.2 channels were blocked” value in data set [1] (prior study) is “no inhibition”. In [3], the “INaL inhibition when 50% of CaV1.2 channels were blocked” value was “no inhibition”. The IC50 in data set [3] was 24.5 µM; in [13], 0.8 µM; in data set [9], 0.112 µM. Also, in data set [12] (setting [14]), the AP triangulation result is given as “resulting in AP triangulation”.

In the case of `COC(=O)C1=C(C)NC(C)=C(C(=O)OC)C1c1ccccc1[N+](=O)[O-]` [nifedipine], the AP triangulation entry in data set [12] (setting [14]) is reported as “no AP triangulation”.

The values above are taken from PMC12640937, “Integrating drug effects on individual cardiac ionic currents and cardiac action potentials to understand nonclinical translation to clinical ECG changes” (Frontiers in Pharmacology, 2025).
